Laboratory results published in patent publication US20230150974A1 (Foghorn Therapeutics Inc., priority 2020, published 2023).

Assays:
[1] = target: T1, HiBiT-BRM (Homo sapiens, UniProt P51531); assay: HiBiT-BRM cell-based degradation assay (Nano-Glo HiBiT Lytic Detection); settings: HeLa cells expressing HiBiT-BRM, 24 h; for DC50: read-out: BRM HiBit Degradation IC50
T1 construct: expressed in transfected cells
Summary of the method: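 Luminescence from HiBiT–LgBiT complementation in lysates of a stable HiBiT-BRM HeLa line measured after 24 h compound exposure. Degradation expressed as percent relative to DMSO-treated cells and cells given 2 μM of a known BRM/BRG1 degrader.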

[2] = target: T2, HiBit-BRG1 (Homo sapiens, UniProt P51532); assay: HiBit-BRG1 cell-based degradation assay (Nano-Glo HiBiT Lytic Detection); settings: HeLa cells expressing HiBit-BRG1 and LgBit, 24 h; for DC50: read-out: BRG1 HiBit Degradation IC50; for Dmax: read-out: BRG1 HiBit Degradation Maximum (%)
T2 construct: expressed in transfected cells
T2 sequence (P51532 whole entry): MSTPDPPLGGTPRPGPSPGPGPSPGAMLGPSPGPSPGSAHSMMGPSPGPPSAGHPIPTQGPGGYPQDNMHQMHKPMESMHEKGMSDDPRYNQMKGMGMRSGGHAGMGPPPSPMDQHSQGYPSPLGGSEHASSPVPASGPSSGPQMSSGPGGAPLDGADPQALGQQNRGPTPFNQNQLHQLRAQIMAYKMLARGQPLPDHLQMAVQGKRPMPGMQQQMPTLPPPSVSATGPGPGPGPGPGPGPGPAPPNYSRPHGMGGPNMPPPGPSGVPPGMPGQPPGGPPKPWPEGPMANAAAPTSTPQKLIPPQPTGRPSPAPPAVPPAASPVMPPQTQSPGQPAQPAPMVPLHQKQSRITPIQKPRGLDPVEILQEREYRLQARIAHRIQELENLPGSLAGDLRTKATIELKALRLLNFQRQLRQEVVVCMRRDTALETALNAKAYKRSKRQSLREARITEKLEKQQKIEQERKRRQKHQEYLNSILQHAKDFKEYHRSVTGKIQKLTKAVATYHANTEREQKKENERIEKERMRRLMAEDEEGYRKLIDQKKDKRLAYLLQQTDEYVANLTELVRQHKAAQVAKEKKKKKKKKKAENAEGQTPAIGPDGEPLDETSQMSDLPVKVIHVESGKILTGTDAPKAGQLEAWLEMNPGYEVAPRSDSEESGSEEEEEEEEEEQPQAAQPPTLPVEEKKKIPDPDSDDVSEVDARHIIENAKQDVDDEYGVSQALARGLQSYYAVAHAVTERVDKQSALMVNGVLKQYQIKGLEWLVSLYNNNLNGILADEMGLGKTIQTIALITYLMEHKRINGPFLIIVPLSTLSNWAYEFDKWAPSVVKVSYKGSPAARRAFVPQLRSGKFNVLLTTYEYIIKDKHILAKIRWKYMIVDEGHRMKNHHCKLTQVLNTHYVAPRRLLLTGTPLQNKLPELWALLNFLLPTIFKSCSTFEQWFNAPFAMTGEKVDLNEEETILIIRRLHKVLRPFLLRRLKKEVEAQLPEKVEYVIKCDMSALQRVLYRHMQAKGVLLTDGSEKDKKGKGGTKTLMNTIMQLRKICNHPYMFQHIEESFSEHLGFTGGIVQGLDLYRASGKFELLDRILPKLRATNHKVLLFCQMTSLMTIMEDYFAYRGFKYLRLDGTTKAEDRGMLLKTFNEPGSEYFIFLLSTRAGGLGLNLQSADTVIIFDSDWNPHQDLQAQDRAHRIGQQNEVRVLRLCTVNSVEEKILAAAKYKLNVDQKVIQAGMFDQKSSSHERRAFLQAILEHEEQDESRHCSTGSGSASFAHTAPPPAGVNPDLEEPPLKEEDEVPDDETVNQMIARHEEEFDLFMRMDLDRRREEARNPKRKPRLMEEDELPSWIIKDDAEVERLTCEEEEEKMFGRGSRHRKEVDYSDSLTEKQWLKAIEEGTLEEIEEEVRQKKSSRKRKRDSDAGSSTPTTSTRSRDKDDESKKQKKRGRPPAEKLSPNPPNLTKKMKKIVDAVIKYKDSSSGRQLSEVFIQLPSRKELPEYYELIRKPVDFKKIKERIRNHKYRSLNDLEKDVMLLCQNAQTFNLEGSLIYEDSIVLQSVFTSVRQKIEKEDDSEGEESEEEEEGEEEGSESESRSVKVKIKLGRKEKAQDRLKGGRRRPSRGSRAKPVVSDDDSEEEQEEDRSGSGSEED
Summary of the method: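 Luminescence from Nano-Glo HiBiT lytic detection, read after 24 h compound exposure, scored degradation in a stable HeLa HiBiT-BRG1/LgBit line seeded at 5000 cells/well. DMSO wells defined 0% and 2 μM known BRM/BRG1 degrader wells defined full degradation.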

T1 sequence (P51531 whole entry): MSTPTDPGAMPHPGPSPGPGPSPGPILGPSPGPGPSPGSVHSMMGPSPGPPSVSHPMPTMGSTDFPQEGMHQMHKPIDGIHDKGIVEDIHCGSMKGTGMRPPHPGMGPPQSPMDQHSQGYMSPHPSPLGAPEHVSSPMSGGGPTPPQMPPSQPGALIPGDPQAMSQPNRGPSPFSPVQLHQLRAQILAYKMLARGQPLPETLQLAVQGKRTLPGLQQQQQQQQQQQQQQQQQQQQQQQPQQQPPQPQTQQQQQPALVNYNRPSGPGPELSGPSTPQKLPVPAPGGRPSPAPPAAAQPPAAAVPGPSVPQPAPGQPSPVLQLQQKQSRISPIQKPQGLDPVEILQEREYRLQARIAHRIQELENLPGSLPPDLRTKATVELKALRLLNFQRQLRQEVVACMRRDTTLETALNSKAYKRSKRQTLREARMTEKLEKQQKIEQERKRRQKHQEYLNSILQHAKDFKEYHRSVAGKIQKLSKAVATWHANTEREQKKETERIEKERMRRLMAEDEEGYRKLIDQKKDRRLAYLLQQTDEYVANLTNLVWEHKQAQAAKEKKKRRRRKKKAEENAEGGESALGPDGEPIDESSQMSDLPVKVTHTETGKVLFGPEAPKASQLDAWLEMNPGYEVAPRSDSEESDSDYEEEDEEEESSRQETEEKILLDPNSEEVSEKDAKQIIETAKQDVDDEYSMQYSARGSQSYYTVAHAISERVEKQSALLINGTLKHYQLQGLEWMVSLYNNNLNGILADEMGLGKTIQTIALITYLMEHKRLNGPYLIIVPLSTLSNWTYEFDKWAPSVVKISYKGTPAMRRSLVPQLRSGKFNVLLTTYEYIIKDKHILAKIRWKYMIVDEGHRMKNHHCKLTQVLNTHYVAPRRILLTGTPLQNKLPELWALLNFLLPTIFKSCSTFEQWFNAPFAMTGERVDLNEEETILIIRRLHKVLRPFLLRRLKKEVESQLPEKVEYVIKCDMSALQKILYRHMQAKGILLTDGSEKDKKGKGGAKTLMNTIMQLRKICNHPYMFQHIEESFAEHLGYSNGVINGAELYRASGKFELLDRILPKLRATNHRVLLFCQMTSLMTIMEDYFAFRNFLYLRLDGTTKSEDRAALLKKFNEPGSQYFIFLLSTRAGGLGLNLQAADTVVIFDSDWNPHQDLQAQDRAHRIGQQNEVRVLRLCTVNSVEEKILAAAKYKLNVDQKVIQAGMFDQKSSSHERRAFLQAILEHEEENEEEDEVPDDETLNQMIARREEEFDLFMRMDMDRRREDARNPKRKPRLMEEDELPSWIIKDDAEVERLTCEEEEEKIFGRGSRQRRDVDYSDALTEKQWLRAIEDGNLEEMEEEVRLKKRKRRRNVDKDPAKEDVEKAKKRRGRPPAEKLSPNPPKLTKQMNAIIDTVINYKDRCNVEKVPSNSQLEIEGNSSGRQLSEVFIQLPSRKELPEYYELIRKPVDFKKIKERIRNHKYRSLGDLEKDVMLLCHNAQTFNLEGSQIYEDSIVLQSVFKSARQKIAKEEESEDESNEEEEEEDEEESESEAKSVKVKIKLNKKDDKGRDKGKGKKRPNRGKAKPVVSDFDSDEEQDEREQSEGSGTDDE

Row | SMILES | DC50 [1] [nM] | DC50 [2] [nM] | Dmax [2] [%] | BRM HiBit Degradation Maximum (%) [1]
1 | Nc1nnc(-c2ccccc2O)cc1OCCc1ccc(CNC(=O)CCCCCCCCCCNc2ccc3c(c2)C(=O)N(C2CCC(=O)NC2=O)C3=O)cc1 (stereo not shown) [Compound 66] | > 1000 | > 1000 | < 50 | C (“C” indicates maximum degradation <50%)
2 | Nc1nnc(-c2ccccc2O)cc1OCCc1ccc(CNC(=O)CCOCCOCCNc2ccc3c(c2)C(=O)N(C2CCC(=O)NC2=O)C3=O)cc1 (stereo not shown) [Compound 70, N-[[4-(2-[[3-amino-6-(2-hydroxyphenyl)pyridazin-4-yl]oxy]ethyl)phenyl]methyl]-3-[2-(2-[[2-(2,6-dioxopiperidin-3-yl)-1,3-dioxoisoindol-5-yl]amino]ethoxy)ethoxy]propanamide] | > 1000 | > 1000 | < 50 | C (“C” indicates maximum degradation <50%)
3 | Nc1nnc(-c2ccccc2O)cc1OCCc1ccc(CNC(=O)CCCCCCCCNc2ccc3c(c2)C(=O)N(C2CCC(=O)NC2=O)C3=O)cc1 (stereo not shown) [Compound 73, N-(4-(2-((3-amino-6-(2-hydroxyphenyl)pyridazin-4-yl)oxy)ethyl)benzyl)-9-((2-(2,6-dioxopiperidin-3-yl)-1,3-dioxoisoindolin-5-yl)amino)nonanamide] | > 1000 | > 1000 | < 50 | C (“C” indicates maximum degradation <50%)
4 | Nc1nnc(-c2ccccc2O)cc1OCCc1ccc(CNC(=O)CCCCCCCCCNc2ccc3c(c2)C(=O)N(C2CCC(=O)NC2=O)C3=O)cc1 (stereo not shown) [Compound 75, N-(4-(2-((3-amino-6-(2-hydroxyphenyl)pyridazin-4-yl)oxy)ethyl)benzyl)-10-((2-(2,6-dioxopiperidin-3-yl)-1,3-dioxoisoindolin-5-yl)amino)decanamide] | > 1000 | > 1000 |  | C (“C” indicates maximum degradation <50%)
5 | Nc1nnc(-c2ccccc2O)cc1N1CCN(CC(=O)N2CC(COc3cccc4c3C(=O)N(C3CCC(=O)NC3=O)C4=O)C2)CC1 (stereo not shown) [Compound 76, 4-[[1-(2-[4-[3-amino-6-(2-hydroxyphenyl)pyridazin-4-yl]piperazin-1-yl]acetyl)azetidin-3-yl]methoxy]-2-(2,6-dioxopiperidin-3-yl)isoindole-1,3-dione] | > 1000 | > 1000 | < 50 | C (“C” indicates maximum degradation <50%)
6 | Nc1nnc(-c2ccccc2O)cc1N1CCN(C(=O)C2CC2CNC(=O)COc2cccc3c2C(=O)N(C2CCC(=O)NC2=O)C3=O)CC1 (stereo not shown) [Compound 77, N-[(2-[4-[3-amino-6-(2-hydroxyphenyl)pyridazin-4-yl]piperazine-1-carbonyl]cyclopropyl)methyl]-2-[[2-(2,6-dioxopiperidin-3-yl)-1,3-dioxoisoindol-4-yl]oxy]acetamide] | > 1000 | > 1000 |  | C (“C” indicates maximum degradation <50%)
7 | Nc1nnc(-c2ccccc2O)cc1N1CCN(C(=O)C2CC2CNC(=O)COc2ccc3c(c2)C(=O)N(C2CCC(=O)NC2=O)C3=O)CC1 (stereo not shown) [Compound 78, N-[(2-[4-[3-amino-6-(2-hydroxyphenyl)pyridazin-4-yl]piperazine-1-carbonyl]cyclopropyl)methyl]-2-[[2-(2,6-dioxopiperidin-3-yl)-1,3-dioxoisoindol-5-yl]oxy]acetamide] | > 1000 | > 1000 |  | C (“C” indicates maximum degradation <50%)
8 | Nc1nnc(-c2ccccc2O)cc1N1CCN(CC(=O)NCCS(=O)(=O)CCNc2cccc3c2C(=O)N(C2CCC(=O)NC2=O)C3=O)CC1 (stereo not shown) [Compound 79, 2-[4-[3-amino-6-(2-hydroxyphenyl)pyridazin-4-yl]piperazin-1-yl]-N-[2-(2-[[2-(2,6-dioxopiperidin-3-yl)-1,3-dioxoisoindol-4-yl]amino]ethanesulfonyl)ethyl]acetamide] | > 1000 | > 1000 | < 50 | C (“C” indicates maximum degradation <50%)

Now from value to compound, other results behind:

Row | DC50 [1] [nM] | DC50 [2] [nM] | Dmax [2] [%] | SMILES | BRM HiBit Degradation Maximum (%) [1]
9 | > 1000 | > 1000 | < 50 | CN(CCNC(=O)COc1cccc2c1C(=O)N(C1CCC(=O)NC1=O)C2=O)CCNC(=O)c1ccc(CCOc2cc(-c3ccccc3O)nnc2N)cc1 (stereo not shown) [Compound 58, N-[2-[(2-[[4-(2-[[3-amino-6-(2-hydroxyphenyl)pyridazin-4-yl]oxy]ethyl)phenyl]formamido]ethyl)(methyl)amino]ethyl]-2-[[2-(2,6-dioxopiperidin-3-yl)-1,3-dioxoisoindol-4-yl]oxy]acetamide] | C (“C” indicates maximum degradation <50%)
10 | > 100 | > 1000 | < 50 | CN(CCNC(=O)c1ccc(CCOc2cc(-c3ccccc3O)nnc2N)cc1)CCNc1cccc2c1C(=O)N(C1CCC(=O)NC1=O)C2=O (stereo not shown) [Compound 61, 4-(2-[[3-amino-6-(2-hydroxyphenyl)pyridazin-4-yl]oxy]ethyl)-N-[2-[(2-[[2-(2,6-dioxopiperidin-3-yl)-1,3-dioxoisoindol-4-yl]amino]ethyl)(methyl)amino]ethyl]benzamide] | B (“B” indicates maximum degradation ≥50%)
11 | > 1000 | > 100 | > 50 | Nc1nnc(-c2ccccc2O)cc1OCCc1ccc(CNC(=O)COc2cccc3c2C(=O)N(C2CCC(=O)NC2=O)C3=O)cc1 (stereo not shown) [Compound 62, N-[[4-(2-[[3-amino-6-(2-hydroxyphenyl)pyridazin-4-yl]oxy]ethyl)phenyl]methyl]-2-[[2-(2,6-dioxopiperidin-3-yl)-1,3-dioxoisoindol-4-yl]oxy]acetamide] | C (“C” indicates maximum degradation <50%)
12 | > 100 | > 1000 | < 50 | Nc1nnc(-c2ccccc2O)cc1OCCc1ccc(CNC(=O)CCCCCOc2cccc3c2C(=O)N(C2CCC(=O)NC2=O)C3=O)cc1 (stereo not shown) [Compound 63, N-[[4-(2-[[3-amino-6-(2-hydroxyphenyl)pyridazin-4-yl]oxy]ethyl)phenyl]methyl]-6-[[2-(2,6-dioxopiperidin-3-yl)-1,3-dioxoisoindol-4-yl]oxy]hexanamide] | B (“B” indicates maximum degradation ≥50%)
13 | > 1000 | > 1000 | < 50 | Nc1nnc(-c2ccccc2O)cc1OCCc1ccc(C(=O)NCCCCCCCCNc2ccc3c(c2)C(=O)N(C2CCC(=O)NC2=O)C3=O)cc1 (stereo not shown) [Compound 64, 4-(2-[[3-amino-6-(2-hydroxyphenyl)pyridazin-4-yl]oxy]ethyl)-N-(8-[[2-(2,6-dioxopiperidin-3-yl)-1,3-dioxoisoindol-5-yl]amino]octyl)benzamide] | C (“C” indicates maximum degradation <50%)
14 | > 1000 | > 1000 | < 50 | Nc1nnc(-c2ccccc2O)cc1OCCc1ccc(CNC(=O)CCCOc2cccc3c2C(=O)N(C2CCC(=O)NC2=O)C3=O)cc1 (stereo not shown) [Compound 65, N-[[4-(2-[[3-amino-6-(2-hydroxyphenyl)pyridazin-4-yl]oxy]ethyl)phenyl]methyl]-4-[[2-(2,6-dioxopiperidin-3-yl)-1,3-dioxoisoindol-4-yl]oxy]butanamide] | C (“C” indicates maximum degradation <50%)
15 | > 100 | > 1000 | < 50 | Nc1nnc(-c2ccccc2O)cc1OCCc1ccc(CNC(=O)CCCCOc2cccc3c2C(=O)N(C2CCC(=O)NC2=O)C3=O)cc1 (stereo not shown) [Compound 67, N-[[4-(2-[[3-amino-6-(2-hydroxyphenyl)pyridazin-4-yl]oxy]ethyl)phenyl]methyl]-5-[[2-(2,6-dioxopiperidin-3-yl)-1,3-dioxoisoindol-4-yl]oxy]pentanamide] | A (“A” indicates maximum degradation ≥75%)
16 | > 1000 | > 1000 | < 50 | Nc1nnc(-c2ccccc2O)cc1OCCc1ccc(CNC(=O)CCCCCCCOc2cccc3c2C(=O)N(C2CCC(=O)NC2=O)C3=O)cc1 (stereo not shown) [Compound 69, N-[[4-(2-[[3-amino-6-(2-hydroxyphenyl)pyridazin-4-yl]oxy]ethyl)phenyl]methyl]-8-[[2-(2,6-dioxopiperidin-3-yl)-1,3-dioxoisoindol-4-yl]oxy]octanamide] | C (“C” indicates maximum degradation <50%)
17 | > 1000 | > 1000 | < 50 | Nc1nnc(-c2ccccc2O)cc1OCCc1ccc(CNC(=O)CCCCCCCCNc2cccc3c2C(=O)N(C2CCC(=O)NC2=O)C3=O)cc1 (stereo not shown) [Compound 71, N-[[4-(2-[[3-amino-6-(2-hydroxyphenyl)pyridazin-4-yl]oxy]ethyl)phenyl]methyl]-9-[[2-(2,6-dioxopiperidin-3-yl)-1,3-dioxoisoindol-4-yl]amino]nonanamide] | C (“C” indicates maximum degradation <50%)
18 | > 1000 | > 1000 | < 50 | Nc1nnc(-c2ccccc2O)cc1OCCc1ccc(CNC(=O)CCCCCCCCCCNc2cccc3c2C(=O)N(C2CCC(=O)NC2=O)C3=O)cc1 (stereo not shown) [Compound 72] | C (“C” indicates maximum degradation <50%)
19 | > 1000 | > 1000 | < 50 | Nc1nnc(-c2ccccc2O)cc1OCCc1ccc(CNC(=O)CCOCCOCCNc2cccc3c2C(=O)N(C2CCC(=O)NC2=O)C3=O)cc1 (stereo not shown) [Compound 74, N-(4-(2-((3-amino-6-(2-hydroxyphenyl)pyridazin-4-yl)oxy)ethyl)benzyl)-3-(2-(2-((2-(2,6-dioxopiperidin-3-yl)-1,3-dioxoisoindolin-4-yl)amino)ethoxy)ethoxy)propanamide] | C (“C” indicates maximum degradation <50%)
